From US9969762B2
In brackets after ≈: the same amount, converted by molar mass. Like-named read-outs stand apart in the source and are kept apart here.

Experiments:
[1] = test system: Agrobacterium tumefaciens; test: Antibacterial activity (MIC and MBC) in TY medium; type: cell-based; settings: for MBC: plated on TY agar
[2] = test system: Dickeya dianthicola; test: Antibacterial activity (MIC and MBC) in TY medium; type: cell-based; settings: for MBC: plated on TY agar
[3] = test system: Pectobacterium atrosepticum; test: Antibacterial activity (MIC and MBC) in TY medium; type: cell-based; settings: for MBC: plated on TY agar
[4] = test system: Agrobacterium tumefaciens, Pectobacterium atrosepticum and Dickeya dianthicola bacteria; test: Antibacterial activity, summary statements over the bacteria tested; type: cell-based; settings: for inhibition of the growth of the bacteria (in words): after 36 h of incubation at 30° C., compared with 4-NPO
[5] = test system: Fusarium roseum; settings: compound in methanol, more than 10 days at 20° C.
Protocol: (§1) The antifungal activity of the N-alkyl-glycosyl(di)amine derivatives of formula (I) and of the N-alkyl-glycamine derivatives of formula (III) synthesized according to the process of the invention was evaluated on two fungi: Fusarium roseum and Fusarium sambucinum.
(§2) For this, 500 μl of solution comprising the test derivative, dissolved in DMSO or methanol, are mixed with 19.5 ml of malt agar medium (Sigma aldrich) allowing the growth of these two Fusarium isolates. The test derivative is prepared in 2 ml of methanol, then mixed with 18 ml of malt agar medium (Sigma aldrich). A spot of 10 μl of culture of each Fusarium is then deposited at the center of each Petri dish. After 10 days of incubation at 20° C., the growth diameters are measured.
(§3) The range of concentrations of N-alkyl-glycosyl(di)amine derivatives of formula (I) tested ranges from 0.1 to 25 μmol/ml.
(§4) The Fusarium growth on media containing the various molecules is compared with that obtained only with DMSO or methanol.
(§5) The same antifungal evaluation protocol as the one previously described with the compound Ij was applied for other N-alkyl-glycosyl(di)amine derivatives of formula (I) and N-alkyl-glycamine derivatives of formula (III) at concentrations ranging from 1 to 20 μmol/ml.
(§6) 2 ml of solution comprising the test compound dissolved in methanol are mixed with 18 ml of agar malt medium (Sigma aldrich) allowing the growth of these two Fusarium isolates. A spot of 10 μl of culture of each Fusarium is then deposited at the center of each Petri dish. After more than 10 days of incubation at 20° C., the growth diameters are measured.

[6] = test system: Fusarium sambucinum; settings: compound in methanol, more than 10 days at 20° C.
Protocol: as §1, §2, §3, §4, §5, §6

[7] = test system: Phytophthora infestans; test: microbe, parasite or virus in culture; type: cell-based; settings: after 6 days; 20 mg in 200 μl distilled water, spots of 10 μl
[8] = 36 h of culture at 30° C., TY medium

Row | SMILES | MIC [1, 8] [µg/mL] | bactericidal activity (in words) [4] | inhibition of the growth of the bacteria (in words) [4] | MIC [3, 8] [µg/mL] | Inhibition of the growth of the Fusarium roseum fungi ([5]; 1 μmol/ml) [%] | Inhibition of the growth of the Fusarium roseum fungi ([5]; 2.5 μmol/ml) [%] | Inhibition of the growth of the Fusarium roseum fungi ([5]; 5 μmol/ml) [%] | MBC ([1]; 36 h of culture at 30° C.) [µg/mL] | MIC [2, 8] [µg/mL] | MBC ([2]; 36 h of culture at 30° C.) [µg/mL] | Inhibition of the growth of the Fusarium sambucinum fungi ([6]; 1 μmol/ml) [%] | Inhibition of the growth of the Fusarium sambucinum fungi ([6]; 2.5 μmol/ml) [%] | Inhibition of the growth of the Fusarium sambucinum fungi ([6]; 5 μmol/ml) [%] | Average diameters of inhibition zone [7] [mm] | MBC ([3]; 36 h of culture at 30° C.) [µg/mL] | also measured
1 | O=[N+]([O-])c1cc[n+]([O-])cc1 [4-NPO, 4-Nitropyridine-N-oxide, reference compound] | – | – | – | – | – | – | – | – | – | – | – | – | – | – | – | MIC ([1]; Agrobacterium tumefaciens, 36 h, 36 h of culture at 30° C., TY medium, read-out: MIC): 125 µg/mL (≈ 892 µM); MIC ([1]; Agrobacterium tumefaciens, reference bacteriostatic molecule, read-out: MIC): 125 µg/mL (≈ 892 µM); MIC ([2]; Dickeya dianthicola, 36 h of culture at 30° C., TY medium, read-out: MIC): 16 µg/mL (≈ 114 µM); MBC ([2]; Dickeya dianthicola, 36 h of culture at 30° C., read-out: MBC): 16 µg/mL (≈ 114 µM); MIC ([2]; Dickeya dianthicola, reference bacteriostatic molecule, read-out: MIC): 16 µg/mL (≈ 114 µM); MIC ([3]; Pectobacterium atrosepticum, 36 h, 36 h of culture at 30° C., TY medium, read-out: MIC): 125 µg/mL (≈ 892 µM); MIC ([3]; Pectobacterium atrosepticum, reference bacteriostatic molecule, read-out: MIC): 125 µg/mL (≈ 892 µM)
2 | CC1OC(NCCCCCNC2OC(C)[C@H](O)C(O)C2O)C(O)C(O)[C@H]1O (some centres unmarked) [Ig] | 125 (≈ 317 µM) | showed a bactericidal activity | inhibition of the growth of the bacteria was observed | 125 (≈ 317 µM) | – | – | – | – | – | – | – | – | – | – | – | MBC ([1]; Agrobacterium tumefaciens, 36 h, 36 h of culture at 30° C., read-out: MBC): 250 µg/mL (≈ 634 µM); MBC ([3]; Pectobacterium atrosepticum, 36 h, 36 h of culture at 30° C., read-out: MBC): 250 µg/mL (≈ 634 µM)
3 | CCCCCCCCCCCCNCC(O)C(O)C(O)C(C)O (centres unmarked) [compound IIIa] | 16 (≈ 48 µM) | showed a bactericidal activity | inhibition of the growth of the bacteria was observed | 32 (≈ 95.9 µM) | 100 | 100 | 100 | 62.5 (≈ 187 µM) | 62.5 (≈ 187 µM) | 62.5 (≈ 187 µM) | 100 | 100 | 100 | 24 | 32 (≈ 95.9 µM) | –
4 | CCCCCCCCCCCCNCC(O)C(O)C(O)C(O)CO (centres unmarked) [compound IIIb] | 16 (≈ 45.8 µM) | showed a bactericidal activity | inhibition of the growth of the bacteria was observed | 32 (≈ 91.6 µM) | 100 | 100 | 100 | 32 (≈ 91.6 µM) | 62.5 (≈ 179 µM) | 62.5 (≈ 179 µM) | 96 | 96 | 100 | 20 | 32 (≈ 91.6 µM) | –
5 | CCCCCCCCCCCCNCC(O)C(O)C(O)C(O)CO (centres unmarked) [compound IIIc] | >500 | showed a bactericidal activity | inhibition of the growth of the bacteria was observed | 62.5 (≈ 179 µM) | 100 | 100 | 100 | >500 | >500 | >500 | 98 | 100 | 100 | 18 | 62.5 (≈ 179 µM) | –
6 | CC(O)C(O)C(O)C(O)CNCCCCCCCCCCCCN (centres unmarked) [compound IIId] | 52.5 (≈ 151 µM) | showed a bactericidal activity | inhibition of the growth of the bacteria was observed | 62.5 (≈ 179 µM) | – | – | – | 250 (≈ 717 µM) | 16 (≈ 45.9 µM) | 125 (≈ 359 µM) | – | – | – | 0 | 62.5 (≈ 179 µM) | –
7 | CCCCNC1OC(C)[C@H](O)C(O)C1O (some centres unmarked) [compound Ib] | – | – | – | – | 0 | 0 | 0 | – | – | – | 0 | 0 | 4 | – | – | Inhibition of the growth of the Fusarium roseum fungi ([5]; 10 μmol/ml): 70%; Inhibition of the growth of the Fusarium roseum fungi ([5]; 20 μmol/ml): 88%; Inhibition of the growth of the Fusarium sambucinum fungi ([6]; 10 μmol/ml): 76%; Inhibition of the growth of the Fusarium sambucinum fungi ([6]; 20 μmol/ml): 90%
